Reference: patent US20180371076A1, “MATERNAL TH17 CELLS AND PSYCHIATRIC DISORDERS” (New York University, priority 2017, published 2018)
“Also recorded” adds a separate entry of the source.

Tests used:
[1] = system: IL-1β; assay: IL-1β ELISA of maternal serum; format: in vivo, mouse; conditions: poly(I:C) at E12.5, 3 h, vs PBS
Procedure: Cell preparation, Flow cytometry, ELISA Embryos at each implantation site were dissected in ice-cold HBSS containing Ca2+ and Mg2+ (Gibco). Myometrium was first peeled off of the decidua and embryos were discarded. Dissected decidual and placental tissues were then minced and enzymatically dissociated in HBSS containing 0.28 Wunsch units (WU)/mL Liberase (Roche) and 30 μg/mL DNase I (Roche) for 30 min at 37° C. with intermittent mixing. Digested tissues were washed in PBS containing 5 mM EDTA and 5% fetal bovine serum and then incubated again in the same buffer for 15 min at 37° C. prior to filtration through a cell strainer. […] Intracellular cytokine staining was performed according to the manufacturer's protocol (Cytofix/Cytoperm buffer set from BD with Pacific Blue-conjugated CD4, FITC or PerCP-Cy5.5-conjugated CD8, APC4 Cy7-conjugated TCR-β, PE-Cy7-conjugated anti-IL-17a, PE-conjugated anti-IFN-γ, PECy7-conjugated anti-CD25 and PE-conjugated Foxp3 (eBioscience). LSR II (BD Biosciences) and FlowJo software (Tree Star) were used for flow cytometry and analysis. Dead cells were excluded using the Live/Dead fixable aqua dead cell stain kit (Invitrogen). For ELISA with sera and placenta/decidua extract, IL-6 (Ebioscience), IL-17a, TNF-α, IL-1β, IFN-β (Biolgened), and IL-10 (BD) were measured according to the manufacturer's protocol.

[2] = system: IL-17a; assay: IL-17a secretion by ex vivo cultured mononuclear cells (PMA/ionomycin); format: cell-based, mouse; conditions: vs PBS
Procedure: Cell preparation, Flow cytometry, ELISA. Embryos at each implantation site were dissected in ice-cold HBSS containing Ca^2+ and Mg^2+. Myometrium was first peeled off of the decidua and embryos were discarded. Dissected decidual and placental tissues were then minced and enzymatically dissociated in HBSS containing 0.28 Wunsch units (WU)/mL Liberase (Roche) and 30 μg/ml DNase I (Roche) for 30 min at 37° C. with intermittent mixing. Digested tissues were washed in PBS containing 5 mM EDTA and 5% fetal bovine serum and then incubated again in the same buffer for 15 min at 37° C. prior to filtration through a cell strainer. After separation on a discontinuous 40% & 80% Percoll gradient, the mononuclear cell fraction was treated with ACK lysis buffer (Lonza). Mononuclear cells (1×10^6 cells/mL) were stimulated with phorbol 12-myristate 13-acetate (PMA, 50 ng/mL; Sigma), ionomycin (500 ng/mL; Sigma) in T cell media: RPMI 1640 (Invitrogen) supplemented with 10% (v/v) heat-inactivated FBS (Hyclone), 50 U penicillin-streptomycin (Invitrogen), 2 mM glutamine, and 50 μM β-mercaptoethanol. Cell culture supernatant was used for ELISA analyses. For flow cytometry, cells were incubated for 5 h with PMA, ionomycin and GolgiStop (BD). […] For ELISA with sera and placenta/decidua extract, IL-6 (Ebioscience), IL-17a (Biolgened), and IL-10 (BD) were measured according to the manufacturer's protocol. […]

poly(I:C)
serum IL-1β [1]: strong induction | IL-17a secretion by placenta/decidua-associated mononuclear cells ([2]; cells from poly(I:C)-treated dams, ex vivo PMA and ionomycin): increased IL-17a secretion; also recorded: enhanced secretion of IL-17a | IL-17a secretion by small intestine mononuclear cells ([2]; cells from poly(I:C)-treated pregnant dams): did not exhibit higher levels of IL-17a secretion; also recorded: did not secrete more IL-17a
